Activity calls are given as the source filed them. The rule behind the calls is not given here.
System: CCRIS mutagenicity, Ames/micronucleus/aberration tests
Assay: CCRIS mutagenicity studies
[1] = Test System: AMES SALMONELLA TYPHIMURIUM, Strain/Indicator: TA98, Metabolic Activation: HAMSTER, LIVER, S-9, AROCLOR 1254, Method: STANDARD PLATE
[2] = Test System: AMES SALMONELLA TYPHIMURIUM, Strain/Indicator: TA98, Metabolic Activation: NONE, Method: STANDARD PLATE
[3] = Test System: AMES SALMONELLA TYPHIMURIUM, Strain/Indicator: TA98, Metabolic Activation: RAT, LIVER, S-9, AROCLOR 1254, Method: PREINCUBATION
[4] = Test System: AMES SALMONELLA TYPHIMURIUM, Strain/Indicator: TA98, Metabolic Activation: RAT, LIVER, S-9, AROCLOR 1254, Method: STANDARD PLATE
[5] = Test System: AMES SALMONELLA TYPHIMURIUM, Strain/Indicator: TA100, Metabolic Activation: NONE, Method: STANDARD PLATE
[6] = Test System: AMES SALMONELLA TYPHIMURIUM, Strain/Indicator: TA100, Metabolic Activation: RAT, LIVER, S-9, AROCLOR 1254, Method: STANDARD PLATE
[7] = Test System: AMES SALMONELLA TYPHIMURIUM, Strain/Indicator: TA1535, Metabolic Activation: NONE, Method: STANDARD PLATE
[8] = Test System: AMES SALMONELLA TYPHIMURIUM, Strain/Indicator: TA1535, Metabolic Activation: RAT, LIVER, S-9, AROCLOR 1254, Method: STANDARD PLATE
[9] = Test System: AMES SALMONELLA TYPHIMURIUM, Strain/Indicator: TA1537, Metabolic Activation: NONE, Method: STANDARD PLATE
[10] = Test System: AMES SALMONELLA TYPHIMURIUM, Strain/Indicator: TA1537, Metabolic Activation: RAT, LIVER, S-9, AROCLOR 1254, Method: STANDARD PLATE
[11] = Test System: AMES SALMONELLA TYPHIMURIUM, Strain/Indicator: TA1538, Metabolic Activation: NONE, Method: STANDARD PLATE
[12] = Test System: AMES SALMONELLA TYPHIMURIUM, Strain/Indicator: TA1538, Metabolic Activation: RAT, LIVER, S-9, AROCLOR 1254, Method: STANDARD PLATE

Row | Compound | mutagenic call [1] | mutagenic call [2] | mutagenic call [3] | mutagenic call [4] | mutagenic call [5] | mutagenic call [6] | mutagenic call [7] | mutagenic call [8] | mutagenic call [9] | mutagenic call [10] | mutagenic call [11] | mutagenic call [12] | also measured
1 | c1ccc2nccnc2c1 | inactive; negative | inactive; negative | active; positive | inactive; negative | inactive; negative | inactive; negative | inactive; negative | inactive; negative | inactive; negative | inactive; negative | inactive; negative | inactive; negative | mutagenic call (Test System: AMES SALMONELLA TYPHIMURIUM, Strain/Indicator: TA98, Metabolic Activation: NONE, Method: PREINCUBATION): inactive; negative; mutagenic call (Test System: AMES SALMONELLA TYPHIMURIUM, Strain/Indicator: TA100, Metabolic Activation: HAMSTER, LIVER, S-9, AROCLOR 1254, Method: STANDARD PLATE): inactive; negative; mutagenic call (Test System: AMES SALMONELLA TYPHIMURIUM, Strain/Indicator: TA100, Metabolic Activation: NONE, Method: PREINCUBATION): inactive; negative; mutagenic call (Test System: AMES SALMONELLA TYPHIMURIUM, Strain/Indicator: TA100, Metabolic Activation: RAT, LIVER, S-9, AROCLOR 1254, Method: PREINCUBATION): inactive; negative; mutagenic call (Test System: AMES SALMONELLA TYPHIMURIUM, Strain/Indicator: TA102, Metabolic Activation: NONE, Method: PREINCUBATION): inactive; negative; mutagenic call (Test System: AMES SALMONELLA TYPHIMURIUM, Strain/Indicator: TA102, Metabolic Activation: RAT, LIVER, S-9, AROCLOR 1254, Method: PREINCUBATION): inactive; negative; mutagenic call (Test System: AMES SALMONELLA TYPHIMURIUM, Strain/Indicator: TA1535, Metabolic Activation: HAMSTER, LIVER, S-9, AROCLOR 1254, Method: STANDARD PLATE): inactive; negative; mutagenic call (Test System: AMES SALMONELLA TYPHIMURIUM, Strain/Indicator: TA1537, Metabolic Activation: HAMSTER, LIVER, S-9, AROCLOR 1254, Method: STANDARD PLATE): inactive; negative; mutagenic call (Test System: AMES SALMONELLA TYPHIMURIUM, Strain/Indicator: TA1538, Metabolic Activation: HAMSTER, LIVER, S-9, AROCLOR 1254, Method: STANDARD PLATE): inactive; negative; mutagenic call (Test System: Mouse lymphoma, Strain/Indicator: L5178Y (tk+/tk-), Metabolic Activation: None, Method: Suspension/plate): inactive; negative; mutagenic call (Test System: Mouse lymphoma, Strain/Indicator: L5178Y (tk+/tk-), Metabolic Activation: Rat, Liver, S-9, Aroclor 1254, Method: Suspension/plate): active; positive
2 | O=C(Nc1ccccc1)c1csc([N+](=O)[O-])c1 | – | active; positive | – | – | active; positive | – | – | – | – | – | – | – | mutagenic call (Test System: AMES SALMONELLA TYPHIMURIUM, Strain/Indicator: TA98(1,8-DNP6), Metabolic Activation: NONE, Method: STANDARD PLATE): active; positive; mutagenic call (Test System: AMES SALMONELLA TYPHIMURIUM, Strain/Indicator: TA98(NR), Metabolic Activation: NONE, Method: STANDARD PLATE): inactive; negative; mutagenic call (Test System: AMES SALMONELLA TYPHIMURIUM, Strain/Indicator: YG1021, Metabolic Activation: NONE, Method: STANDARD PLATE): active; positive; mutagenic call (Test System: AMES SALMONELLA TYPHIMURIUM, Strain/Indicator: YG1024, Metabolic Activation: NONE, Method: STANDARD PLATE): active; positive
3 | Cc1ccc(N=Nc2ccc(N(CCO)CCO)cc2)cc1 | inactive; negative | inactive; negative | inactive; negative | inactive; negative | inactive; negative | inactive; negative | inactive; negative | inactive; negative | inactive; negative | inactive; negative | inactive; negative | inactive; negative | –

— PubChem BioAssay AID1259407 (Chemical Carcinogenesis Research Information System (CCRIS), 2018)
